Read-outs that look alike come from different tables or passages of the source.

In assay [1] the test system is PBMC (peripheral blood monocyte). The assay is described as follows: PBMC determination: cytokines in culture supernatant measured by HTRF. In kind it is cell-based. The following applies: human PBMC, 24 h. The protocol: Determination of PBMC (Peripheral Blood Monocyte) Cell Preparation, Separation and Culture
Human whole blood was collected from healthy volunteers using BD Vacutainer® Lithium Heparin Tubes. PBMCs were prepared using Ficoll separation medium (GE Healthcare) by SopMate™ (STEMCELL). The cell survival rate was over 85% as monitored by Countstar. PBMCs were cultured in RPMI 1640 (Gibco) 10% (v/v) FBS (Gibco), 1×MEM NEAA (Gibco), 1× GlutaMAX (Gibco), 1 mM sodium pyruvate (Gibco), 50 uM 2-mercaptoethanol (sigma), and 100 U/ml penicillin-streptomycin (Thermo fisher Scientific).
PBMCs were plated into 96-well plates (costar 3894) with a density of 2×10^5 cells/well. Then, TLR7/8 compound was added, and serial dilution was carried out at ten points. The final concentration in 0.1% DMSO/RPMI 1640 ranged from 1 nM to 10 μM. Then, the plates were incubated in 5% CO2 at 37° C. for 24 h.
HTRF (Homogeneous Time-Resolved Fluorescence)
After the specified time point, according to the manufacturers recommendations, the cytokines in the cell culture supernatant were measured by Human IL6 kit (cisbio) and Human TNF alpha kit (cisbio). The EC50 of each compound was determined by calculating the maximum activation percentage identified using Resiquimod or Motolimod.
On the technique in general: Time-resolved FRET reads energy transfer from a long-lived donor to a nearby acceptor.

In assay [2] the target is T1, human TLR 8 protein in HEK-blue hTLR 8 tool cell line (Homo sapiens, UniProt Q9NR97).
T1 construct: expressed in transfected cells; host or cells: HEK293 (HEK-Blue hTLR8)
T1 sequence (Q9NR97 27-1041): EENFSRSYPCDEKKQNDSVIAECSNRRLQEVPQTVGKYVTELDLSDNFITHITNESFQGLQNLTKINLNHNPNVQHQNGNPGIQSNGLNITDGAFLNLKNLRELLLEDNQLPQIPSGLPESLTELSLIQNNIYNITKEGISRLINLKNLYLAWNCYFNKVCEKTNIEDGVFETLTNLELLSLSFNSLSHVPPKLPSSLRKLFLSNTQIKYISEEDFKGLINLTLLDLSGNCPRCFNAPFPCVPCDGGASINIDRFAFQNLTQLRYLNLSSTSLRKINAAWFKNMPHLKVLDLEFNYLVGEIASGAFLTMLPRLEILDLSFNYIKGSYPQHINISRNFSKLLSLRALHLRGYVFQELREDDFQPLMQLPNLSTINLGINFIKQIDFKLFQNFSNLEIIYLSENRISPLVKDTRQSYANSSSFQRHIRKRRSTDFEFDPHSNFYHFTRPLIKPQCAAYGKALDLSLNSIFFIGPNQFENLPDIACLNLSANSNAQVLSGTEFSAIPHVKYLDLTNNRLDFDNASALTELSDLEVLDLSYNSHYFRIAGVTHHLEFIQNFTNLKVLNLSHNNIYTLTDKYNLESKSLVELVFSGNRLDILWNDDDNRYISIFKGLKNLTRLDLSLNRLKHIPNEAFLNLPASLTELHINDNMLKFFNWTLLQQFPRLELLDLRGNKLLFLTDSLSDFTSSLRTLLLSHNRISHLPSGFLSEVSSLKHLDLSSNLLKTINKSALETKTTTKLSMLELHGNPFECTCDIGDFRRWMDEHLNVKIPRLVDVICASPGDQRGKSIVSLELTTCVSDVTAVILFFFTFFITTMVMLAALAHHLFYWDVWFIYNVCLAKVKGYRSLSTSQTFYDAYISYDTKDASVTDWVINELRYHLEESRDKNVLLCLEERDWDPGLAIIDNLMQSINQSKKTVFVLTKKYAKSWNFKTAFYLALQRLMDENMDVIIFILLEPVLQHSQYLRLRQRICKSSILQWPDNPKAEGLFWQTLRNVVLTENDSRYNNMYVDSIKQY
The assay is described as follows: TLR8 stimulation determined by HEK-Blue Detection (NF-κB/SEAP reporter). In kind it is cell-based. The following applies: HEK-Blue hTLR8 cells, 16 h incubation, relative to maximum activation by Resiquimod or motolimod; read-out: EC50 (nmol). The text has this: TLR8 Stimulation Determined by HEK-Blue Detection
This assay was designed to study the stimulation of human TLR 8 protein in HEK-blue hTLR 8 tool cell line by monitoring the activation of NF-κB. HEK-blue hTLR8 cells were obtained by co-transfection of hTLR8 gene and optimized secretory embryonic alkaline phosphatase (SEAP) reporter gene into HEK293 cells. SEAP reporter gene was put under the control of […] minimal promoter fused with five NF-κB and AP-1-binding sites. NF-κB and AP-1 were activated by stimulation with TLR 8 ligand, thus inducing the expression of SEAP. The level of SEAP can be easily determined by HEK-Blue Detection (a cell culture medium that allows real-time detection of SEAP). HEK-Blue Detection comprises all nutrients needed for cell growth and specific SEAP color substrates. The hydrolysis of substrate by SEAP produces purple/blue color which can be measured by spectrophotometer.
When growing to 50-80% confluence, HEK-Blue hTLR7/8 cells were plated into 96-well plates (costar 3599) at a density of 40,000 cells/well. Then, the compound serially diluted at 10 points with a final concentration ranging from 1 nM to 10 μm in 0.1% DMSO/HEK-Blue Detection was added. The plates were then incubated in 5% CO2 at 37° C. for 16 h. Optical density at 620-655 nm was read on BMG PHERAstar FSX instrument. The EC50 of each compound was determined by calculating the maximum activation percentage identified using Resiquimod or motolimod.
The EC50 of the tested compound of the present invention is as follows.

Setting [3] is: Human IL6 kit (HTRF), read-out: IL6 (EC50).
Setting [4] is: Human TNF alpha kit (HTRF), read-out: TNF-alpha (EC50).

Turning to `CCC[C@H](C)Oc1nc(N)c2ncc(CC3CCNCC3)n2n1` [Compound B6, (S)-2-(pent-2-yloxy)-7-(piperidin-4-ylmethyl)imidazo[2,1-f][1,2,4]triazin-4-amine], the EC50 (as a rule, the concentration that produces a half-maximal response) in assay [1] (setting [3]) was 0.162 µM; in assay [1] (setting [4]) it was 0.115 µM; in assay [2], 0.0082 µM.

As for `CCC[C@@H](C)Oc1nc(N)c2ncc(CC3CCNCC3)n2n1` [Compound B7, (R)-2-(pent-2-yloxy)-7-(piperidin-4-ylmethyl)imidazo[2,1-f][1,2,4]triazin-4-amine], the EC50 in assay [1] (setting [3]) was greater than 10 µM; in assay [1] (setting [4]) it was greater than 10 µM; in assay [2] it was 1.29 µM.

Regarding `CCC[C@H](C)Oc1nc(N)c2ncc(CC3CCN(CCNC)CC3)n2n1` [Compound B12, (S)-7-((1-(2-(methylamino)ethyl)piperidin-4-yl)methyl)-2-(pent-2-yloxy)imidazo[2,1-f][1,2,4]triazin-4-amine], the EC50 came out at 0.014 µM in assay [1] (setting [3]), 0.01 µM in assay [1] (setting [4]) and 0.019 µM in assay [2].

Turning to `CCC[C@H](C)Oc1nc(N)c2ncc(CC3CCCNCC3)n2n1` (stereo partly drawn) [Compound B25, 7-(azepan-4-ylmethyl)-2-(((S)-pent-2-yl)oxy)imidazo[2,1-f][1,2,4]triazin-4-amine], the EC50 in assay [1] (setting [3]) worked out at 0.236 µM; in assay [1] (setting [4]), 0.456 µM; in assay [2], 0.063 µM.

With `CCC[C@H](C)Oc1nc(N)c2ncc(CC3CCNC(C)C3)n2n1` (stereo partly drawn) [Compound B27, 7-((2-methylpiperidin-4-yl)methyl)-2-(((S)-pent-2-yl)oxy)imidazo[2,1-f][1,2,4]triazin-4-amine], the EC50 in assay [1] (setting [3]) worked out at 0.228 µM; in assay [1] (setting [4]), 0.326 µM; in assay [2], 0.02 µM.

`CCC[C@H](C)Oc1nc(N)c2ncc(C[C@H]3C[C@@H](N)C3)n2n1` [Compound B30, 7-(((1s,3S)-3-aminocyclobutyl)methyl)-2-(((S)-pent-2-yl)oxy)imidazo[2,1-f][1,2,4]triazin-4-amine]: the EC50 in assay [1] (setting [3]) worked out at 0.085 µM; in assay [1] (setting [4]), 0.153 µM; in assay [2], 0.026 µM.

On to `CCC[C@H](C)Oc1nc(N)c2ncc(CC3CCN(CCN)CC3)n2n1` [Compound B38, (S)-7-((1-(2-aminomethyl)piperidin-4-yl)methyl)-2-(pent-2-yloxy)imidazo[2,1-f][1,2,4]triazin-4-amine], for which the EC50 turned out to be 0.028 µM in assay [1] (setting [3]), 0.039 µM in assay [1] (setting [4]) and 0.047 µM in assay [2].

Source of the values: patent publication US12590096B2, “Imidazo[2,1-f][1,2,4]triazin-4-amine as TLR8 agonists” (BeOne Medicines | GmbH, priority 2019, dated 2026).
